Columns and labels:
[1] = test system: Mus musculus; assay: Antagonism of amphetamine-induced toxicity in ip dosed mouse; assay type: functional
[2] = organism: Rattus norvegicus; assay: Ratio of ED50 for cataleptic activity in rat to ED50 for conditioned avoidance response in rat; assay type: functional
[3] = biological target: D(1A) dopamine receptor (Rattus norvegicus, UniProt P18901); assay: Displacement of [3H]SCH-23390 from dopamine D1 receptor in rat brain; assay type: tissue-based
[4] = test system: Rattus norvegicus; assay: Blockade of conditioned avoidance response in ip dosed rat; assay type: functional
[5] = test system: Rattus norvegicus; assay: Cataleptic activity in ip dosed rat; assay type: ADME, organism-based; settings: in vivo
[6] = test system: Mus musculus; assay: Reduction of amphetamine-induced hyperactivity in ip dosed mouse; assay type: functional
[7] = test system: Rattus norvegicus; assay: Blockade of unconditioned avoidance response in ip dosed rat; assay type: functional
[8] = biological target: D(2) dopamine receptor (Rattus norvegicus, UniProt P61169); assay: Displacement of [3H]spiperone from dopamine D2 receptor in rat brain; assay type: tissue-based
D(2) dopamine receptor, sequence (P61169 whole entry): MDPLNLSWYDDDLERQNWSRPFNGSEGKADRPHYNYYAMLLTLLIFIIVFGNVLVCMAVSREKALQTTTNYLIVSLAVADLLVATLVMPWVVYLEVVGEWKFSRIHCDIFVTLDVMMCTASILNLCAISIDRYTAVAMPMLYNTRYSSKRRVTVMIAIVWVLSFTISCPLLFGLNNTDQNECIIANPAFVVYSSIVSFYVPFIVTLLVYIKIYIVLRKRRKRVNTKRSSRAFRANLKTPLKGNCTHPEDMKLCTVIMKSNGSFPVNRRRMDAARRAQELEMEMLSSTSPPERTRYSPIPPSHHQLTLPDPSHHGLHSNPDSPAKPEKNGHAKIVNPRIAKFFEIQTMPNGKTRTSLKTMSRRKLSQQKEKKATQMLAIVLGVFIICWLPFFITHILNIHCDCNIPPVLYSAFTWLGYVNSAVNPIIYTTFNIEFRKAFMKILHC

[9] = test system: Rattus norvegicus; assay: Blockade of secondary conditioned avoidance response in ip dosed rat; assay type: functional
[10] = test system: Mus musculus; assay: Effect on locomotor activity in ip dosed mouse assessed as motor deficit by rota rod test; assay type: functional
[11] = biological target: 5-hydroxytryptamine receptor 2A (Rattus norvegicus, UniProt P14842); assay: Displacement of [3H]ketanserin from 5HT2A receptor in rat brain; assay type: tissue-based
5-hydroxytryptamine receptor 2A, sequence (P14842 whole entry): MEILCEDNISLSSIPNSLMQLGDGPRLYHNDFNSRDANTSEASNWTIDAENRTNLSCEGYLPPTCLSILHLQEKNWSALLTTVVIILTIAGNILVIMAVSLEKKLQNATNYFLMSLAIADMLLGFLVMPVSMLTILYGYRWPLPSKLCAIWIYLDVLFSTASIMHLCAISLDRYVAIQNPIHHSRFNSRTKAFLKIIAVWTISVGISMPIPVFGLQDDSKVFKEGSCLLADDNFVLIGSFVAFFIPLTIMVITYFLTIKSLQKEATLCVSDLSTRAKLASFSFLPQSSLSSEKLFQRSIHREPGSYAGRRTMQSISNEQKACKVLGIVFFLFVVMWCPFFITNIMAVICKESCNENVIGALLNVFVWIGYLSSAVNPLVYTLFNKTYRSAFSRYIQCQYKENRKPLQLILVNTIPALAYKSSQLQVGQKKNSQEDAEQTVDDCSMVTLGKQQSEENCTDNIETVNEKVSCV

D(1A) dopamine receptor, sequence (P18901 whole entry): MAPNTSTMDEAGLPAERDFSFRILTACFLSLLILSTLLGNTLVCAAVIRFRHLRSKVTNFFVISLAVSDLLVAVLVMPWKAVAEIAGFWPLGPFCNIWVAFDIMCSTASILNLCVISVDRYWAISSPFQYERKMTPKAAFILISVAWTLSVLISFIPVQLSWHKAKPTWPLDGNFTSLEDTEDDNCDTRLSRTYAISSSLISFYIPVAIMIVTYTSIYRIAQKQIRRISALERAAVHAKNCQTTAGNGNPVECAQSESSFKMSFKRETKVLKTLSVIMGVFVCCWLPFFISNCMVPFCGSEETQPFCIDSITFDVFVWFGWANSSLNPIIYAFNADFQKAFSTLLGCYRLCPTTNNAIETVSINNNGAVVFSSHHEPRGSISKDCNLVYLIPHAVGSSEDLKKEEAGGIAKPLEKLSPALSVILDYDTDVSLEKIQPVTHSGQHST

SMILES | Ki [3] [nM] | Ki [8] [nM] | Ki [11] [nM] | ED50 [1] [mg/kg] | Ratio [2] | ED50 [4] [mg/kg] | ED50 [5] [mg/kg] | ED50 [6] [mg/kg] | ED50 [7] [mg/kg] | ED50 [9] [mg/kg] | ED50 [10] [mg/kg]
O=C(CCCN1c2ccccc2C2CC3CNCCN3CC21)c1ccc(F)cc1 (mixture of isomers) |  | > 100000 | > 100000 |  |  |  |  |  |  |  | 
O=C(CCCN1CCN2Cc3[nH]c4ccccc4c3CC2C1)c1ccc(F)cc1 (stereo not drawn) [BIRIPERONE] | 425 | 13.2 | 24 | 1 | 9.5 | 0.09 | 0.86 | 0.75 | 9.8 | 0.04 | 2.55
O=C(CCCN1CCC(O)(c2ccc(Cl)cc2)CC1)c1ccc(F)cc1 [HALOPERIDOL] |  |  |  |  |  | 0.1 |  |  |  | 0.04 | 

More lines, main results first:

Ki [3] [nM] | Ki [8] [nM] | Ki [11] [nM] | SMILES | ED50 [1] [mg/kg] | Ratio [2] | ED50 [4] [mg/kg] | ED50 [5] [mg/kg] | ED50 [6] [mg/kg] | ED50 [7] [mg/kg] | ED50 [9] [mg/kg] | ED50 [10] [mg/kg]
0.643 | 2250 | 9.35 | O=C(CCCN1CCN2CC3C(CC2C1)c1ccccc1N3CCCC(=O)c1ccc(F)cc1)c1ccc(F)cc1 (stereo not drawn) | 5.75 | 12.6 | 0.07 | 0.88 | 1.71 | 5.6 | 0.01 | 4.33
 | 93.8 | 92.5 | O=C(CCCN1CCN2CC3Nc4ccccc4C3CC2C1)c1ccc(F)cc1 (stereo not drawn) |  |  |  |  |  |  |  | 

Reference: ChEMBL document CHEMBL1137517, “Rational design, synthesis and evaluation of (6aR( *),11bS( *))-1-(4-fluorophenyl)-4-{7-[4-(4-fluorophenyl)-4-oxobutyl]1,2,3,4,6,6a,7,11b,12,12a(RS)-decahydropyrazino[2',1':6,1]pyrido[3,4-b]indol-2-yl}-butan-1-one as a potential neuroleptic agent” (Bioorg Med Chem, 2007)
